{"source": "patent US5447915A", "about": "“Terminally blocked antiviral peptides” (priority 1992, dated 1995)", "key": {"[1]": {"target": "T1, human immunodeficiency virus (HIV-1) glycoprotein gp120 (Human immunodeficiency virus type 1 group M subtype B, UniProt P03375)", "T1 construct": "a solution of gp120 (20 μg/ml) (synthesized in vitro from baculovirus and obtained from MicroGeneSys); purchased MicroGeneSys, West Haven, Conn; host or cells: gp120 from baculovirus expression; CD4 on HSBCD4-M.23 cells (HSB-2 clone transfected with CD4 cDNA)", "assay_type": "binding", "conditions": "HSBCD4-M.23 cells; for inhibition of gp120 binding to CD4 (corrected mean fluorescence of CD4-expressing cells): gp120 preincubated with peptide 1 hour 37° C., about 50 μM to 900 μM", "procedure": "The peptides prepared as described in Example 1 were characterized as to their ability to bind to the human immunodeficiency virus (HIV-1) glycoprotein gp120. This ability was assayed on the basis of the peptides ability to inhibit binding of gp120 to the human CD4 protein.\nOn the day of the assay the peptides were diluted 10-fold in phosphate buffered saline (PBS) and 2-fold serial dilutions made into PBS previously adjusted to the same DMSO concentration (10%). 25 μl each of each peptide solution and a solution of gp120 (20 μg/ml) (synthesized in vitro from baculovirus and obtained from MicroGeneSys, West Haven, Conn.) were combined and incubated at 37° C. for 1 hour. A total of 3-5×10^5 HSBCD4-M.23 cells [derived from a clone of the pre-T cell leukemia line HSB-2 (obtained from the American Type Culture Collection (ATCC), Rockville, Md.) which expresses human CD4 as a result of transfaction of CD4 cDNA sequences; Diamond et al., Proc. Natl. Acad. Sci. 87: xxxx (1990)] were pelleted in the walls of a 96-well V-bottom microtiter plate, resuspended with the preincubated gp 120-peptide mixture and allowed to incubate at 4° C. for 1 hour. The cells were then pelleted and resuspended in 50μl of a solution containing rabbit anti-gp120 antibody (diluted 1:400 in PBS; MicroGeneSys, West Haven, Conn.) and incubated at 4° C. for 30 min. The cells were again pelleted, washed with 100 μl PBS and resuspended in 50μl of a solution containing fluorescein isothiocyanate (FITC)-conjugated goat anti-rabbit antibody (diluted 1:20; Tago) and incubated at 4° C. for 30 min. The cells were pelleted and washed as before, and resuspended in 100 μl of a solution containing propidium iodine at a concentration of 25 μg/ml and transferred to tubes containing 400 μl PBS for flow cytometric analysis on an Epics V (Coulter) for FAtScan (Betton-Dickinson,Mountainview, Calif.). Cells were gated on propidium iodide to exclude dead cells. Green fluorescence was collected on the linear amplifier and the mean fluorescence calculated."}, "HIV": {"system": "HIV", "assay": "Inhibition of HIV infection of CD4-expressing human peripheral blood lymphocytes, p24 antigen", "assay_type": "cell-based", "conditions": "peptide 160 μg/ml; human T cells from PBL", "quoted_text": "These cells were obtained by depleting peripheral blood mononuclear cells isolated by passage through nylon wool [Finberg et al., Science 249: 287-291 (1990)]using antibodies specific for CD8 (OKTS, obtained from ATCC) and CD16 (B73.1, a gift of G. Trinchieri) followed by treatment with antibody-coated magnetic beads [Haregerwoin et al., Nature 340: 309 (1989)]. This treatment enriches the cell population for CD4-expressing human peripheral T cells. Virus was incubated for 1 hour at 37° C. with varying concentrations of CPF(DD), or with CPF(6F) at a concentration of 160 μg/ml. The treated virus preparation was then incubated with cells for 1 hour at 37° C. Cells were washed twice and maintained in RPMI 1640/10% FCS supplemented with interleukin 2 [10 units/ml, Collaborative Research]. Cells were maintained and assayed for p24 production as described above."}, "HIV-1": {"system": "HIV-1", "conditions": "peptide 80 μg/ml; after 4 days of co-cultivation for CPF(DD)", "quoted_text": "PBL-derived human T cells, infected with HIV-1, were washed extensively with RPMI 1640 media and then 10^4 infected T cells were added to 5×10^5 uninfected H9 cells in the presence or absence of CPF(DD) or CPF(δF) at concentrations of 80 μg/ml. Cells were co-cultivated and maintained at H9 cell densities of 5×10^5 cells/ml and tested after 2, .varies.and 6 days of co-cultivation. The extent of infection of H9 cells was determined by p24 antigen ELISA assay, performed 48 hours after washing the T-cell-H-9 cell mixture free of virus."}, "[2]": {"system": "conjugate formation between HBSCD4-M.23 cells and Daudi cells", "conditions": "peptide 100 μg/ml, gp120 20 μg/ml", "quoted_text": "Conjugate formation was assayed using HBSCD4-M.23 cells and cells from the human MHC-expressing cell line Daudi (available from ATCC). The HBSCD4-M.23 cells were labeled with 0.5 μg/ml sulfofluorescein diacetate (Molecular Probes, Eugene, Oreg.) and the Daudi cells were labeled with 40 ng/ml hydroethidine (Polysciences, Warrington, Pa.) and mixed at a 1:2 ratio (HBSCD4-M.23:Daudi) at a total concentration of 1×10^6 cells/mi. Cells were then incubated in 30 μl RPMI 1640 media at 37° C. for at least 90 minutes in the presence or absence of CPF(DD) or CPF(δF) (at concentrations of 100 μg/ml) and gp120 (20 μg/ml). At the end of the incubation, the cells were gently resuspended to preserve conjugates and scored by fluorescence microscopy. Positive conjugates were scored as at least two cells displaying one fluorescent color bound to at least one cell displaying the other fluorescent color. Samples were analyzed blinded as to their identity, and in duplicate, and at least three counts of 100 fluorescein-labeled cells were performed for each sample. The percentage of conjugates scored was calculated as the total number of conjugates scored divided by the total number of conjugates plus free CD4-expressing (fluorescein-labeled) cells."}, "[3]": {"system": "IL-2 production in 16CD4-9 T cell hybridoma cells", "conditions": "peptide 200 μg/ml, gp120 5-10 μg/ml, diluted 20-fold and reconcentrated by ultrafiltration", "quoted_text": "These gp120 solutions were then diluted 20-fold with PBS and the gp120 reconcentrated by ultrafiltration as described in Example 2. The recovered gp120 solutions were then combined with 1×10^5 16CD4-9 T cell hybridoma cells (available from ATCC) and 2×10^5 Daudi cells and cultured overnight at 37° C. IL-2 was detected in the culture supernatants using a cell proliferation assay [Watson, J. Exp. Med. 150: 1510-1515 (1979)], with the modification that proliferation was detected colorimetrically as the cleavage of 3-(4,5-dimethyl-thiazol)-2,6-diphenyl-tetrazolium bromide (MTT) [Finberg et al., Science 249: 287-291 (1990)]."}}, "note": "Non-standard residues stand in square brackets, D forms with d. Residues, ends and D or L forms follow the SMILES beside them. *: point of attachment. OBn = c1ccc(CO*)cc1"}
{"molecule": "N-carbomethoxylcarbonyl-D-Pro-D-Ala-OBn [CPF(F→A)]", "values": [{"measurement": "concentration giving 50% inhibition of gp120 binding, fold higher than for CPF(LL)", "setting": "[1]; in comparison with CPF(LL)", "result": "2-5 fold"}]}
{"molecule": "O=C(N[C@H](Cc1ccccc1)C(=O)OCc1ccccc1)[C@H]1CCCN1", "note": "[(DD) prolylphenylalanylbenzylester] (H-[dP]-[dF]-OBn)", "values": [{"measurement": "inhibition of gp120 binding to CD4 (corrected mean fluorescence of CD4-expressing cells)", "setting": "[1]", "result": "unable to inhibit gp120 binding"}]}
{"molecule": "COC(=O)C(=O)N[C@H](Cc1ccccc1)C(=O)OCc1ccccc1", "note": "[CPF(δP), N-carbomethoxylcarbonyl-D-Phe-OBn]", "values": [{"measurement": "inhibition of gp120 binding to CD4 (corrected mean fluorescence of CD4-expressing cells)", "setting": "[1]", "result": "does not inhibit gp120 binding to CD4-expressing human cells"}]}
{"molecule": "COC(=O)C(=O)N1CCC[C@@H]1C(=O)OCc1ccccc1", "note": "[CPF(δF), N-carbomethoxylcarbonyl-D-Pro-OBn]", "values": [{"measurement": "inhibition of gp120 binding to CD4 (corrected mean fluorescence of CD4-expressing cells)", "setting": "[1]", "result": "does not inhibit gp120 binding to CD4-expressing human cells"}, {"measurement": "kinetics and maximum production of p24", "setting": "HIV", "result": "does not effect either the kinetics or the maximum production of p24"}, {"measurement": "p24 antigen in supernatant after co-cultivation of infected T cells and uninfected H9 cells", "setting": "HIV-1", "result": "no different from those detected in co-cultures of T cells and H9 cells incubated without peptides"}, {"measurement": "conjugate formation in presence of gp120 preincubated with peptide", "setting": "[2]", "result": "does not restrict gp120-mediated inhibition of conjugate formation"}, {"measurement": "IL-2 production in presence of gp120 preincubated with peptide", "setting": "[3]", "result": "slight increase in the amount of IL-2"}]}
